From a melting point compilation (Tetko et al.; mined from patent text by program, amines drawn as free bases though some values may be those of a salt)

melting point [°C] | Compound
130 | CC(C)Oc1cc(Oc2ccc(C(F)(F)F)cn2)ccc1CCCOc1cc(CCC(=O)O)n(-c2ccccc2)n1
138 to 140 | COc1ccc(C(=Cc2c(Cl)cncc2Cl)c2ccccc2)cc1OC1CCCC1
52.3 to 53.3 | COc1ccc(C(=O)CC(=O)C(C)(C)C)cc1OC
179 to 180 | CS(=O)(=O)c1ccc(C2=C(c3cccc(F)c3)CN(C3CC3)C2=O)cc1
183 to 185 | Cc1cc(Cc2ccc(O)cc2)n(C)c1C(=O)c1ccc(Cl)cc1
130 to 132 | O=C(Cc1ccccc1)NC1C(=O)N2CC(C(=O)OCc3ccccc3)SC12 (stereo not drawn)
> 300 | O=C(O)c1cc([N+](=O)[O-])c(-c2ccncc2)[nH]c1=O
121 | C[C@H]1C[C@@H](Nc2ccccc2)c2ccccc2N1C(=O)c1ccncc1 (relative stereo)
169 to 170 | NS(=O)(=O)c1ccccc1C(=O)OC1COC1
193 | CCOC(=O)[C@@H]1CSC=CN1C(=O)[C@@H](Cc1ccccc1)N1C(=O)c2ccccc2C1=O (relative stereo)
250 | O=C(O)c1cccc(NC(=O)N2CCc3cc(S(=O)(=O)N4CCN(c5cccc(Cl)c5)CC4)ccc32)c1
74 to 76 | OC[C@@H](O)[C@@H](CO)OCc1ccccc1Cl
170 to 175 | N#Cc1cc(C(F)(F)F)cnc1O
262 to 264 | COc1cccc2c1CN(c1c(F)cc3c(=O)c(C(=O)O)cn4c3c1OCC4C)C2 (stereo not drawn)
81 to 83 | C=CCOC(=O)OCc1ccc(C#N)cc1C(=O)O
129 to 135 | CN1C(=O)CC[C@]2(C)c3ccc(-c4cnc5ccccc5n4)cc3CC[C@@H]12
122 | O=S(=O)(c1ccccc1)N1CCCC1c1ccc(Cl)cc1 (racemic)
197 to 199 | NC(=O)C1Cc2cc(F)ccc2N1 (stereo not drawn)
26 to 27 | CCCCCCCCCCCCCCOc1cccc(C(=O)Cl)c1
105 to 108 | C=CCOc1ccc(Nc2nccc(-c3cccnc3)n2)cc1
258 to 261 | O=C1NC(O)c2cc(Br)ccc21 (stereo not drawn)
224 to 226 | Cc1nnc(C(C)NC(=O)CC(C)C)c(=O)[nH]1 (stereo not drawn)
186 | CCN(C(=O)Nc1ccccc1)c1cccc(-c2ccc(CC3SC(=O)NC3=O)cc2)c1 (stereo not drawn)

melting point [°C] | Compound
176 to 178 | CC(=O)N1CCc2cc(S(=O)(=O)n3c(COC(C)(C)C(=O)O)cc4cc(C(F)(F)F)ccc43)ccc21
73 to 75 | CCC(CO)NC(=O)C(C)(C)c1ccc(-c2cccc(COC)c2)cc1 (stereo not drawn)
189 to 191 | CC(C)(C)C(NC(=O)c1ccc(Cl)cc1)NC(=NC#N)NCc1ccncc1 (stereo not drawn)
102 to 103 | COc1ccc2[nH]c(C)c(CCNC(=O)C3CC3)c2c1
120 to 122 | COCOC1=C(C(N)=O)CC(C#N)(c2cccc(OCC3CC3)c2)CC1 (stereo not drawn)
179 to 181 | O=C1NCCc2c1c1ccccc1n2CC1CCCC1
159 to 160 | O=C1C(c2ccccc2)=C(c2ccccc2)C(=O)N1C1CCCCC1
76 to 80 | CCCCS(=O)(=O)Nc1ccc(C(=O)c2ccccc2)cc1
206 to 208 | O=C1NN(C(=O)c2ccccc2NCc2ccccc2)Cc2ccccc21
180 to 182 | COc1nc2cc(C)c(C)cc2nc1C(=O)O
> 210 | CCCOc1ccnc2[nH]cc(C(C)=O)c12
200 | COc1ccc(NC(=O)c2ccc([N+](=O)[O-])cc2)cc1
230 to 232 | COc1cc2nc(N)nc(-c3cccc(CO)c3)c2cc1OC
278 to 280 | CNS(=O)(=O)c1ccc(-c2cnc3[nH]cc(C(=O)C(C)(C)C)c3n2)cc1
116 to 118 | O=C(C=C1CCCCC1)C1Cc2c([nH]c3ccccc23)C(c2ccc3c(c2)OCO3)N1 (stereo not drawn)
168 to 169 | COc1cc(C2(C)C(=O)Nc3ccccc3C2=O)ccc1O (stereo not drawn)
137 | N#Cc1c(N2CCN(C(=O)c3cccs3)CC2)c2cc(F)cnc2n(Cc2cccc(F)c2)c1=O
> 260 | O=C(O)COc1ccccc1Cn1nc(-c2cccs2)c(Cc2cc3c(cc2Cl)OCO3)c1C(=O)O
63 to 65 | COc1ccc2c(c1OC)CCOC2CCl (stereo not drawn)
153 | CCOCCOc1cc(C(F)(F)F)cc(N(N)C(=CNS(C)(=O)=O)[N+](=O)[O-])n1
213 to 216 | Cn1c(C(F)(F)F)cc(=O)n(-c2ccc3snc(C4OCCO4)c3c2)c1=O
221 to 222 | O=C(c1ccccc1)c1c(-c2ccccc2)sc2cc(O)ccc12
176 to 178 | COc1ccc2sc(Nc3ccc(OCCCl)cc3)nc2c1

melting point [°C] | Compound
85 to 86 | N#Cc1nc(-c2ccc(OCCN3CCCCC3)cc2)cs1
> 230 | CNc1nc(-c2ccc(-c3ccccc3)cc2)c(C(=O)OC)s1
145 to 147 | c1ccc(Cc2ccc3c(c2)nc2n3CCCS2)cc1
115 to 120 | O=C(C=CC[C@H]1NC(=O)[C@@H]1N1C(=O)c2ccccc2C1=O)OCc1ccccc1
132 to 133 | C[C@H]1C=CC2=C[C@@H](O)C[C@H](OC(=O)C(C)(C)C)[C@@H]2[C@H]1CC[C@@H]1C[C@@H](O)CC(=O)O1
280 | O=c1[nH]c2c(cnn2-c2ccccc2)c2ccccc12
175 to 178 | CC1(C)CC(n2cc(C#N)c3ccccc32)c2cc(C#N)ccc2O1 (stereo not drawn)
175 to 176 | Cn1c2ccccc2c2sc3ccccc3c21
151 to 153 | COC(=O)Cc1nn(Cc2ccc(Br)cc2F)c(=O)c2ccccc12
82 to 84 | CC(=S)NCC1CN(c2ccc(-c3csc(Cn4cncn4)n3)c(F)c2)C(=O)O1 (stereo not drawn)
112 to 113 | COc1cc(O)c(C(=O)CC(=O)C(C)(C)C#N)c(OC)c1
212 to 216 | CC(=O)NC1=C(N)C(=O)c2cc(C)c(C)cc2C1=O
176 to 178 | COc1ccc(-c2nc(C(=O)N3CCN(C(C)=O)CC3)sc2-c2ccc(OC)cc2)cc1
110 to 111 | COc1cc(OC)c(C(C)=O)c(O)c1CC=C(C)C
201 to 202 | C=C(Br)Cc1c(O)ccc2c(C)cc(=O)oc12
88 to 89 | COc1ccc(C(=O)C=Cc2ccc(N(C)C)cc2)c(OC)c1OC
200 to 204 | O=S1c2ccccc2Sc2ccc(-c3nnn[nH]3)cc21 (stereo not drawn)
154 | COc1ccc(CN(C)CCCc2ccc(NC(=O)c3cccc4c(=O)c5cccc(OC)c5[nH]c34)c(C)c2)cc1OC
130 to 131 | COC(=O)C(=O)c1c(F)cc(OCCOc2ccc3ccccc3c2)cc1F
122 | CC(C)C(O)(Cn1cncn1)c1ccc(C#CI)cc1 (stereo not drawn)
61 to 62.5 | COC(=O)/C=C/c1ccc(C=O)s1

Compound | melting point [°C]
CN1C2C=C(c3ccc(Cl)c(Cl)c3)CC1CC2 (stereo not drawn) | 44 to 52
CN1Cc2c(-c3nc(CCl)co3)ncn2-c2ccccc2C1=O | 196 to 198
COc1cccc(C23CCN(C)CC2Cc2c([nH]c(C(=O)N4CCCC4)c2C)C3)c1 (stereo not drawn) | 171 to 173
COC(=O)c1ccc(CC(C)NCC(O)c2ccccc2)cc1 (stereo not drawn) | 82 to 84
CCOC(=O)c1ccc2c(CCN)c[nH]c2c1 | 169 to 172
Cc1cc(C)n(C(=O)CCl)n1 | 62
